≈ marks a conversion by molar mass, not a printed value. Values belong to the compound of their own block, whether it stands above or below them.
Experiments:
[1] = Metabolic stability in rat hepatocytes (rHep); details: n = 1 or geometric mean of n = 2-3
[2] = target: hFAP (M39-A757) (Homo sapiens (Human), UniProt Q12884); assay: hFAP binding assay (surface plasmon resonance); details: SPR, 20° C.; for hFAP Binding assay k(off) / hFAP Binding assay k(on): single cycle kinetics; for Kd: n = 1 or geometric mean n = 2-4
[3] = target: FAP (Homo sapiens (Human), UniProt Q12884); assay: hFAP inhibition assay; assay type: biochemical; details: Ala-Pro-AMC 20 μM, n = 1 or geometric mean n = 2-3
Procedure: 384 low volume black plates (Greiner #784076) were used. 4 μL, 0.48 nM enzyme solution (100 mM Tris HCl, 100 mM NaCl, 0.05% Chaps, pH 7.4) was added to 40 nL compounds (in DMSO) at 10 CR, 3 fold dilution series from 50 μM FAC. Plates were incubated for 15 min at rt in dark. 4 μL, 40 μM substrate solution (100 mM Tris HCl, 100 mM NaCl, 0.05% Chaps, pH 7.4) was added to each well. Plates were centrifuged at 1000 rpm and incubated for 30 min at rt in dark. The plates were read on a PHERAstar® reader with excitation 340 nm and emission 460 nm. Data were analyzed in Genedata Screener®. IC50 values were determined by plotting % inhibition versus log compound concentration and using a one site dose response model.

[4] = Kinetic solubility; details: kinetic from dmso stock
Procedure: Kinetic solubility was measured as described in Comput Aided Mol Des 2015, 29, 795.

[5] = Metabolic stability in human liver microsomes (HLM); details: human
Procedure: Metabolic stability in HLM was measured as described in J Comput Aided Mol Des 2015, 29, 795.

[6] = target: Prolyl endopeptidase, Prolyl Oligopeptidase (hPREP) (Homo sapiens (Human), UniProt P48147); assay: hPrep inhibition assay; assay type: biochemical; details: hPREP 0.6 nM, Z-Gly-Pro-amino-methylcoumarin 50 μM; read-out: PREP IC50
Outline: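 Recombinant human PREP at 0.6 nM final with Z-Gly-Pro-AMC substrate at 50 μM final in Tris-HCl pH 7.5, NaCl, Triton X-100, glutathione; 15 min rt preincubation then 20 min rt reaction in dark. AMC fluorescence (ex 340/em 460 nm); IC50 from one-site dose-response fit of % inhibition.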

[7] = target: human Fibroblast activation protein alpha (hFAP) (Homo sapiens (Human), UniProt Q12884); assay: hFAP inhibition assay (tight binders); assay type: biochemical; details: Ala-Pro-AMC 20 μM, n = 1 or geometric mean n = 2-6; also: hFAP 2.4 pM
Procedure: The plates were read on a PHERAstar® reader with excitation 340 nm and emission 460 nm. Data were analyzed in Genedata Screener®. IC50 values were determined by plotting % inhibition versus log compound concentration and using a one site dose response model.

[8] = Solubility, kinetic solubility, n = 1 or average of n = 2-3
[9] = HLM CLint, n = 1 or average of n = 2-3

Chain of Prolyl endopeptidase, Prolyl Oligopeptidase (hPREP) (P48147 whole entry): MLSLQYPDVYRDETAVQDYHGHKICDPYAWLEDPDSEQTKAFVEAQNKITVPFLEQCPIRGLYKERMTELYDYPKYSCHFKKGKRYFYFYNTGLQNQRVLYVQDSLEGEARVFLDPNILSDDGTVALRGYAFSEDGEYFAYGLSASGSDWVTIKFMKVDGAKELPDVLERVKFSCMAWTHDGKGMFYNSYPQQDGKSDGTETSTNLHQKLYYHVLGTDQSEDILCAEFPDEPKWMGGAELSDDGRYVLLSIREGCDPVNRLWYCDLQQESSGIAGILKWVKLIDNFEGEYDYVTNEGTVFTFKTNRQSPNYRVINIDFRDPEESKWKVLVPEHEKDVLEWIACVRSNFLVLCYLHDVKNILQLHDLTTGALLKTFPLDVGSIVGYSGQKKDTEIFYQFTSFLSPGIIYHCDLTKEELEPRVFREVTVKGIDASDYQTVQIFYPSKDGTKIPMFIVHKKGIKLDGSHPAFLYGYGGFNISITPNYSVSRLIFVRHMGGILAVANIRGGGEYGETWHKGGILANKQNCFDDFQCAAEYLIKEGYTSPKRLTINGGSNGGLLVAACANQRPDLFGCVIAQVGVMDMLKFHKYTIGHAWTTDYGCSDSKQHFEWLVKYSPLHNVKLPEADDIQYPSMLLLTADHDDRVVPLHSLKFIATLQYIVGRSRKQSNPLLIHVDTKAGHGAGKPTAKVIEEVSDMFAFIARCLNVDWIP
Chain of FAP (Q12884 38-760): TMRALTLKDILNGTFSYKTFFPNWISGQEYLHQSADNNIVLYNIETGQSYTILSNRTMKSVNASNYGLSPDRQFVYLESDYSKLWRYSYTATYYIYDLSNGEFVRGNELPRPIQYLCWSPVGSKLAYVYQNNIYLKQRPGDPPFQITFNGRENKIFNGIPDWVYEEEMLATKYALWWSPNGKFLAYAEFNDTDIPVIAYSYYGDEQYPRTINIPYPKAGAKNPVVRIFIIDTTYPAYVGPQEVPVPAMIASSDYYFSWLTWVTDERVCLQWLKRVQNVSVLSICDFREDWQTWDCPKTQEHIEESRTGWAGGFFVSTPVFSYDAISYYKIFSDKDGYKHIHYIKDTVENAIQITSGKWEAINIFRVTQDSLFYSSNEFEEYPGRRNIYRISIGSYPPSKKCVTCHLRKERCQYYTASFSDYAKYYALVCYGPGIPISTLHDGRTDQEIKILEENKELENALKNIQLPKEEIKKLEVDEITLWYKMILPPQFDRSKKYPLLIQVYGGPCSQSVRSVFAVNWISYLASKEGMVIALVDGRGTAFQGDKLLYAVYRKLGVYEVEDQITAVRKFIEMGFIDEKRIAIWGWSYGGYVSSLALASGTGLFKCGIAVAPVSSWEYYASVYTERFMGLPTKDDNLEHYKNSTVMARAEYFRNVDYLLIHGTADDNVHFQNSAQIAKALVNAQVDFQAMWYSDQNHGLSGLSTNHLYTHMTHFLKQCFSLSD
Chain of human Fibroblast activation protein alpha (hFAP) (Q12884 38-760): as above
Chain of hFAP (M39-A757) (Q12884 39-757): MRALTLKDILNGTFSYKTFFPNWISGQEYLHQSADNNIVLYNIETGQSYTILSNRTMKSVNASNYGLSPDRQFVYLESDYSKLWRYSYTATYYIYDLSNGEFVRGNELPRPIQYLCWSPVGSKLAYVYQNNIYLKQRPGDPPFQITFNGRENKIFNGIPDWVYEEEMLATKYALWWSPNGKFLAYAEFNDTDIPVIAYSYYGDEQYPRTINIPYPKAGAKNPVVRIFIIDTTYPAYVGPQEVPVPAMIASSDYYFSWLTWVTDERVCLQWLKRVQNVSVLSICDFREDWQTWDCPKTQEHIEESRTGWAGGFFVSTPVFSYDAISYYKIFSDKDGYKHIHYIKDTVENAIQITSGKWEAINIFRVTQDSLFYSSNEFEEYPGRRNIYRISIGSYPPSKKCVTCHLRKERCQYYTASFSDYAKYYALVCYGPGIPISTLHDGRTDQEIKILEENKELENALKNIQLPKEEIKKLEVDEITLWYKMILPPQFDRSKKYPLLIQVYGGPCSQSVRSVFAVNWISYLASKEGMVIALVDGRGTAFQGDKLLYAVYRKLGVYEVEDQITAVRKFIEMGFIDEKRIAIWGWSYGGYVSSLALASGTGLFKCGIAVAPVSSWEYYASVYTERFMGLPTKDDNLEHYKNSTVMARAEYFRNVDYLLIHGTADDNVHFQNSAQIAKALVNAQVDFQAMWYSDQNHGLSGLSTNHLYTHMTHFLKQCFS

rHep CLint [1]: 120 μL/min/1E6
hFAP Binding assay k(off) [2]: 0.00012 s⁻¹
hFAP Binding assay k(on) [2]: 4200000 M⁻¹ s⁻¹
Kd [2]: 0.03 nM
IC50 ([3]; hFAP […]): 0.74 nM
solubility [4, 8]: 900 µM (≈ 369 µg/mL)
microsomal CLint [5, 9]: 290 µL/min/mg
IC50 [6]: 430 nM
IC50 [7]: 0.43 nM
Compound: CC1(C)CCN1c1ccc2nccc(C(=O)NCC(=O)N3CSC[C@H]3C#N)c2c1 [Example 20, (R)—N-(2-(4-Cyanothiazolidin-3-yl)-2-oxoethyl)-6-(2,2-dimethylazetidin-1-yl)quinoline-4-carboxamide]

rHep CLint [1]: 27 μL/min/1E6
hFAP Binding assay k(off) [2]: 0.00018 s⁻¹
hFAP Binding assay k(on) [2]: 2100000 M⁻¹ s⁻¹
Kd [2]: 0.085 nM
IC50 ([3]; hFAP […]): 0.31 nM
solubility [4, 8]: 63 µM (≈ 26.3 µg/mL)
microsomal CLint [5, 9]: 25 µL/min/mg
IC50 [6]: 160 nM
IC50 [7]: 0.2 nM
Compound: N#C[C@@H]1CSCN1C(=O)CNC(=O)c1ccnc2ccc(N3CC(F)(F)C3)cc12 [Example 23, (R)—N-(2-(4-Cyanothiazolidin-3-yl)-2-oxoethyl)-6-(3,3-difluoroazetidin-1-yl)quinoline-4-carboxamide]

rHep CLint [1]: 14 μL/min/1E6
hFAP Binding assay k(off) [2]: 0.00011 s⁻¹
hFAP Binding assay k(on) [2]: 1400000 M⁻¹ s⁻¹
Kd [2]: 0.076 nM
IC50 ([3]; hFAP […]): 0.41 nM
solubility [4, 8]: 130 µM (≈ 51.4 µg/mL)
microsomal CLint [5, 9]: 23 µL/min/mg
IC50 [6]: 370 nM
IC50 [7]: 0.3 nM
Compound: CC1CN(c2ccc3nccc(C(=O)NCC(=O)N4CSC[C@H]4C#N)c3c2)C1 [Example 25, (R)—N-(2-(4-Cyanothiazolidin-3-yl)-2-oxoethyl)-6-(3-methylazetidin-1-yl)-quinoline-4-carboxamide]

rHep CLint [1]: 15 μL/min/1E6
hFAP Binding assay k(off) [2]: 0.000092 s⁻¹
hFAP Binding assay k(on) [2]: 2900000 M⁻¹ s⁻¹
Kd [2]: 0.043 nM
IC50 ([3]; hFAP […]): 0.2 nM
IC50 [6]: 280 nM
IC50 [7]: 0.079 nM
Compound: N#C[C@@H]1CSCN1C(=O)CNC(=O)c1ccnc2ccc(N3C[C@@H](F)[C@H](F)C3)cc12 [Example 214, N-(2-((R)-4-Cyanothiazolidin-3-yl)-2-oxoethyl)-6-((3R,4R)-3,4-difluoro-pyrrolidin-1-yl)quinoline-4-carboxamide]

Further lines, the compound ahead of its results:

Compound: C[C@H]1CC(F)(F)CCN1c1ccc2nccc(C(=O)NCC(=O)N3CSC[C@H]3C#N)c2c1 (mixture of isomers) [Example 44, N-(2-((R)-4-Cyanothiazolidin-3-yl)-2-oxoethyl)-6-((RS)-4,4-difluoro-2-methylpiperidin-1-yl)quinoline-4-carboxamide]
rHep CLint [1]: 160 μL/min/1E6
hFAP Binding assay k(off) [2]: 0.000072 s⁻¹
hFAP Binding assay k(on) [2]: 1700000 M⁻¹ s⁻¹
Kd [2]: 0.042 nM
IC50 ([3]; hFAP 0.24 nM): 0.22 nM
solubility [4, 8]: 140 µM
microsomal CLint [5, 9]: 220 µL/min/mg
IC50 [6]: 540 nM
IC50 [7]: 0.074 nM

Compound: N#C[C@@H]1CSCN1C(=O)CNC(=O)c1ccnc2ccc(-c3ccnn3[C@H]3CCCCO3)cc12 (mixture of isomers) [Example 176, N-(2-((R)-4-Cyanothiazolidin-3-yl)-2-oxoethyl)-6-(1-((RS)-tetrahydro-2H-pyran-2-yl)-1H-pyrazol-5-yl)quinoline-4-carboxamide]
rHep CLint [1]: 15 μL/min/1E6
hFAP Binding assay k(off) [2]: 0.00022 s⁻¹
hFAP Binding assay k(on) [2]: 120000 M⁻¹ s⁻¹
Kd [2]: 1.9 nM
IC50 ([3]; hFAP 0.24 nM): 0.54 nM
solubility [4, 8]: 800 µM
microsomal CLint [5, 9]: 92 µL/min/mg
IC50 [6]: 560 nM
IC50 [7]: 0.087 nM

Compound: N#C[C@@H]1CSCN1C(=O)CNC(=O)c1ccnc2ccc(N3C[C@@H]4CC[C@H]3C4)cc12 (mixture of isomers) [Example 210, 6-((1RS,4SR)-2-Azabicyclo[2.2.1]heptan-2-yl)-N-(2-((R)-4-cyanothiazolidin-3-yl)-2-oxoethyl)quinoline-4-carboxamide]
rHep CLint [1]: 250 μL/min/1E6
hFAP Binding assay k(off) [2]: 0.000098 s⁻¹
hFAP Binding assay k(on) [2]: 3800000 M⁻¹ s⁻¹
Kd [2]: 0.026 nM
IC50 ([3]; hFAP 0.24 nM): 0.44 nM
solubility [4, 8]: 150 µM
microsomal CLint [5, 9]: 220 µL/min/mg
IC50 [6]: 220 nM
IC50 [7]: 0.18 nM

Compound: N#C[C@@H]1CSCN1C(=O)CNC(=O)c1ccnc2ccc(N3CCSCC3)cc12 [Example 3, (R)—N-(2-(4-Cyanothiazolidin-3-yl)-2-oxoethyl)-6-thiomorpholinoquinoline-4-carboxamide]
rHep CLint [1]: 28 μL/min/1E6
hFAP Binding assay k(off) [2]: 0.0004 s⁻¹
hFAP Binding assay k(on) [2]: 4100000 M⁻¹ s⁻¹
Kd [2]: 0.095 nM
IC50 ([3]; hFAP […]): 0.24 nM
solubility [4, 8]: 700 µM (≈ 299 µg/mL)
microsomal CLint [5, 9]: 75 µL/min/mg
IC50 [6]: 690 nM
IC50 [7]: 0.13 nM

Compound: N#C[C@@H]1CSCN1C(=O)CNC(=O)c1ccnc2ccc(N3CC4(CCC4)C3)cc12 [Example 17, (R)—N-(2-(4-Cyanothiazolidin-3-yl)-2-oxoethyl)-6-(2-azaspiro[3.3]heptan-2-yl)quinoline-4-carboxamide]
rHep CLint [1]: 16 μL/min/1E6
hFAP Binding assay k(off) [2]: 0.00012 s⁻¹
hFAP Binding assay k(on) [2]: 8300000 M⁻¹ s⁻¹
Kd [2]: 0.015 nM
IC50 ([3]; hFAP […]): 0.22 nM
solubility [4]: 250 µM (≈ 105 µg/mL)
microsomal CLint [5]: 18 µL/min/mg
IC50 [6]: 160 nM
IC50 [7]: 0.085 nM

Compound: N#C[C@@H]1CSCN1C(=O)CNC(=O)c1ccnc2ccc(N3CCC34CCC4)cc12 [Example 19, (R)—N-(2-(4-Cyanothiazolidin-3-yl)-2-oxoethyl)-6-(1-azaspiro[3.3]heptan-1-yl)quinoline-4-carboxamide]
rHep CLint [1]: 63 μL/min/1E6
hFAP Binding assay k(off) [2]: 0.000066 s⁻¹
hFAP Binding assay k(on) [2]: 430000 M⁻¹ s⁻¹
Kd [2]: 0.15 nM
IC50 ([3]; hFAP […]): 0.66 nM
solubility [4]: 480 µM (≈ 202 µg/mL)
microsomal CLint [5]: 190 µL/min/mg
IC50 [6]: 160 nM
IC50 [7]: 0.38 nM

Compound: N#C[C@@H]1CSCN1C(=O)CNC(=O)c1ccnc2ccc(N3CC(C(F)(F)F)C3)cc12 [Example 26, (R)—N-(2-(4-Cyanothiazolidin-3-yl)-2-oxoethyl)-6-(3-(trifluoromethyl)-azetidin-1-yl)quinoline-4-carboxamide]
rHep CLint [1]: 7.6 μL/min/1E6
hFAP Binding assay k(off) [2]: 0.000065 s⁻¹
hFAP Binding assay k(on) [2]: 1300000 M⁻¹ s⁻¹
Kd [2]: 0.056 nM
IC50 ([3]; hFAP […]): 0.31 nM
solubility [4, 8]: 15 µM (≈ 6.74 µg/mL)
microsomal CLint [5, 9]: 31 µL/min/mg
IC50 [6]: 580 nM
IC50 [7]: 0.1 nM

Compound: N#C[C@@H]1CSCN1C(=O)CNC(=O)c1ccnc2ccc(N3CC(F)(C4CC4)C3)cc12 [Example 31, (R)—N-(2-(4-Cyanothiazolidin-3-yl)-2-oxoethyl)-6-(3-cyclopropyl-3-fluoroazetidin-1-yl)quinoline-4-carboxamide]
rHep CLint [1]: 14 μL/min/1E6
hFAP Binding assay k(off) [2]: 0.00024 s⁻¹
hFAP Binding assay k(on) [2]: 9700000 M⁻¹ s⁻¹
Kd [2]: 0.031 nM
IC50 ([3]; hFAP […]): 0.22 nM
solubility [4, 8]: 180 µM (≈ 79.1 µg/mL)
microsomal CLint [5, 9]: 45 µL/min/mg
IC50 [6]: 760 nM
IC50 [7]: 0.1 nM

Compound: C[C@@H]1COC[C@H](C)N1c1cc2c(C(=O)NCC(=O)N3CSC[C@H]3C#N)ccnc2cc1Br [Example 100, 7-Bromo-N-(2-((R)-4-cyanothiazolidin-3-yl)-2-oxoethyl)-6-((3S,5R)-3,5-dimethylmorpholino)quinoline-4-carboxamide]
rHep CLint [1]: 280 μL/min/1E6
hFAP Binding assay k(off) [2]: 0.0022 s⁻¹
hFAP Binding assay k(on) [2]: 3000000 M⁻¹ s⁻¹
Kd [2]: 0.73 nM
IC50 ([3]; hFAP […]): 0.5 nM
solubility [4, 8]: 36 µM (≈ 18.7 µg/mL)
IC50 [6]: 170 nM
IC50 [7]: 0.27 nM

— US20230312550A1, “N-(2-(4-CYANOTHIAZOLIDIN-3-YL)-2-OXOETHYL)-QUINOLINE-4-CARBOXAMIDES” (AstraZeneca AB, priority 2020, published 2023)
